From patent US20250262201A1, “COMPOUNDS AND METHODS USEFUL FOR STABILIZING PHENYLALANINE HYDROXYLASE MUTATIONS” (Agios Pharmaceuticals, Inc., priority 2022, published 2025)
Read-outs that look alike come from different tables or passages of the source.

Molecular target: T1, human PAH with the R408W mutation (Homo sapiens, UniProt P00439, R408W)
T1 construct: expressed in transfected cells
T1 sequence (P00439 1-452 R408W): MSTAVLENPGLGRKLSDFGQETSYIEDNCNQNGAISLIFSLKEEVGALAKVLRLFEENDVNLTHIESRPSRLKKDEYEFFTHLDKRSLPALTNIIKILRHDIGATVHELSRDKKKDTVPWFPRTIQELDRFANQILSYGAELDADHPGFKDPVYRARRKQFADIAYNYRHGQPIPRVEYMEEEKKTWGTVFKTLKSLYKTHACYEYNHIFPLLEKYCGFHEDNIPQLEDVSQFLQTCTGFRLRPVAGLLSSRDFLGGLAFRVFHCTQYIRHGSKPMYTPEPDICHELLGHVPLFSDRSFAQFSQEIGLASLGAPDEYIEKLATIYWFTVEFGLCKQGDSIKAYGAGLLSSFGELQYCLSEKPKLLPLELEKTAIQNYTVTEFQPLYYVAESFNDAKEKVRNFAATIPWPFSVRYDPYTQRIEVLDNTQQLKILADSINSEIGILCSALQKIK
Experiment: Cell Based Phenylalanine Flux Assay
Parameters: scale not given here
Conditions: 13C-Tyrosine by LC-MS, average where tested multiple times

[1] = A375 cells expressing human R408W PAH, 24 hrs compound incubation, read-out: AC50

| AC50 [1] [nM] | SMILES | also measured |
| --- | --- | --- |
| 1000 to 5000 | O=C(c1oc(-c2ccccn2)nc1C(F)F)N1CCc2[nH]cnc2[C@@H]1c1ccc2ccccc2n1 [Example 66] | – |
| – | Cc1cc(F)ccc1-c1nnc(C(=O)N2CCc3[nH]cnc3C2c2ccc3ccccc3n2)o1 (stereo not drawn) | AC50 (A375 R408W cells, 24 hrs with compound, then 20 μM sepiapterin and 800 μM 13C9,15N-Phenylalanine for 4 hours, read-out: AC50): 1000 to 5000 nM |
| < 500 | Cc1ccc(-c2nnc(C(=O)N3CCc4[nH]cnc4[C@H]3c3ncc4ccccc4n3)o2)nc1 [Example 171, (S)-(5-(5-methylpyridin-2-yl)-1,3,4-oxadiazol-2-yl)(4-(quinazolin-2-yl)-6,7-dihydro-1H-imidazo[4,5-c]pyridin-5(4H)-yl)methanone] | – |
| – | Cc1nnc(C(=O)N2CC(C)c3[nH]cnc3C2c2cc3ccccc3cn2)o1 [(4S, 7R) diastereomer of 3-[7-methyl-5-(5-methyl-1,3,4-oxadi] | AC50 (A375 R408W cells, 24 hrs with compound, then 20 μM sepiapterin and 800 μM 13C9,15N-Phenylalanine for 4 hours): E, E |
| < 500 | N#Cc1ncoc1C(=O)N1CCc2[nH]cnc2[C@H]1c1cc2ccccc2cn1 [Example 517, (R)-5-(4-(isoquinolin-3-yl)-4,5,6,7-tetrahydro-1H-imidazo[4,5-c]pyridine-5-carbonyl)oxazole-4-carbonitrile] | – |
| 1000 to 5000 | O=C(c1cnco1)N1CCc2[nH]cnc2[C@@H]1c1cc2ccccc2cn1 [Example 321, (S)-(4-(isoquinolin-3-yl)-6,7-dihydro-1H-imidazo[4,5-c]pyridin-5(4H)-yl)(oxazol-5-yl)methanone] | – |
